Patent publication US10086027B1, “Green synthesis of katononic acid nanosheets” (KING SAUD UNIVERSITY, priority 2018, dated 2018)

Assays:
Experiment in all cases: Antimicrobial activity, diffusion agar technique
Assay type in all cases: cell-based
Details in all cases: well diameter 6.0 mm, 100 μl
[1] = system: Absidia corymbffera (RCMB 02564)
Description: (§1) The antimicrobial effect of the katononic acid nanosheets was evaluated against gram positive bacteria, gram negative bacteria, and fungi. The diffusion agar technique was used with a well diameter of 6.0 mm and 100 μl of katononic acid nanosheets.

[2] = system: Candida albicans (RCMB 05036)
Description: as §1

[3] = system: Geotricum candidum (RCMB 05097)
Description: as §1

[4] = system: Staphylococcus epidermidis (RCMB 010024)
Description: as §1

[5] = system: Staphylococcus aureus (RCMB 010027)
Description: as §1

[6] = system: Streptococcus pyogenes (RCMB 010015)
Description: as §1

[7] = system: Proteous vulgaris (RCMB 010085)
Description: as §1

[8] = system: Klebsiella pneumoniae (RCMB 0010093)
Description: as §1

[9] = system: Salmonella enteritidis (RCMB 010084)
Description: as §1

## C[C@@H]1[C@H](O)[C@@H](C)/C=C/C=C/C=C/C=C/C=C/C=C/C=C/[C@H](O[C@@H]2O[C@H](C)[C@@H](O)[C@H](N)[C@@H]2O)C[C@@H]2O[C@](O)(C[C@@H](O)C[C@@H](O)[C@H](O)CC[C@@H](O)C[C@@H](O)CC(=O)O[C@H]1C)C[C@H](O)[C@H]2C(=O)O [Amphotericin B]
[1]
  Zone of Inhibition (±SD): 23.0 ± 0.10
[2]
  Zone of Inhibition (±SD): 25.7 ± 0.10
[3]
  Zone of Inhibition (±SD): 27.0 ± 0.20

## CC1(C)S[C@@H]2[C@H](NC(=O)[C@H](N)c3ccccc3)C(=O)N2[C@H]1C(=O)O [Ampicillin]
[4]
  Zone of Inhibition (±SD): 25.0 ± 0.18
[5]
  Zone of Inhibition (±SD): 27.3 ± 0.14
[6]
  Zone of Inhibition (±SD): 26.3 ± 0.34

## Gentamycin
[7]
  Zone of Inhibition (±SD): 23.4 ± 0.30
[8]
  Zone of Inhibition (±SD): 26.4 ± 0.15
[9]
  Zone of Inhibition (±SD): 25.2 ± 0.18
